Measured values taken from patent publication US20150031541A1 (priority 2012, published 2015).

Tested on: Plasmopara viticola
Assay: Plasmopara viticola/Grape/Curative (Grape Downy Mildew)
Assay type: in vivo
Conditions: 200 ppm; grape seedlings cv. Gutedel, inoculated one day before application; compared to untreated
Experimental: Plasmopara viticola/Grape/Curative (Grape Downy Mildew)
5-week-old grape seedlings cv. Gutedel are inoculated by spraying a sporangia suspension on their lower leaf surface one day before application. The inoculated grape plants are sprayed in a spray chamber with the formulated test compound diluted in water. The inoculated test plants are incubated at 22° C. and 100% rh in a greenhouse and the percentage leaf area covered by disease is assessed when an appropriate level of disease appears on untreated check plants (4-6 days after application).

CSC1CN(C(=O)Cn2nc(C(F)F)cc2C(F)F)CCC1c1nc(C2=NOC(c3c(F)cccc3F)C2)cs1 (stereo not shown) [I.az.223, 2-[3,5-bis(difluoromethyl)pyrazol-1-yl]-1-[4-[4-[5-(2,6-difluorophenyl)-4,5-dihydroisoxazol-3-yl]thiazol-2-yl]-3-methylsulfanyl-1-piperidyl]ethanone]
disease control: at least 80%
